In ChEMBL document CHEMBL5390225, “Discovery and structural optimization of a new series of N-acyl-2-aminobenzothiazole as inhibitors of Zika virus” (Bioorg Med Chem, 2023):

Tests used:
Zika virus [1] = test: Antiviral activity against Zika virus PE243 infected in African green monkey Vero E6 cells assessed as inhibition of viral replication at 10 uM incubated for 72 hrs by immunofluorescence analysis; format: functional; conditions: PE243, Vero C1008
[2] = Cytotoxicity against African green monkey Vero E6 cells assessed as cell viability at 10 uM measured after 72 hrs by MTT assay relative to control; format: toxicity, cell-based, Vero C1008; conditions: chlorocebus sabaeus, read-out: Activity
[3] = Cytotoxicity against African green monkey Vero E6 cells assessed as cell viability at 2 uM measured after 72 hrs by MTT assay relative to control; format: toxicity, cell-based, Vero C1008; conditions: chlorocebus sabaeus, read-out: Activity
Zika virus [4] = test: (§1) Inhibition of Zika virus BeH823339 NS2B protease (49 to 95 residues) R96A mutant/NS3 protease (1 to 170 residues) R29G/ C80S/C143S mutant expressed in Escherichia coli BL21 (DE3) cells using Bz-Nle-Lys-Lys-Arg-AMC as a fluorogenic substrate at 100 uM preincubated with enzyme for 10 mins by fluorescence-based analysis relative to control
Zika virus [5] = test: Antiviral activity against Zika virus PE243 infected in African green monkey Vero E6 cells assessed as inhibition of viral replication at 2 uM incubated for 72 hrs by immunofluorescence analysis; format: functional; conditions: PE243, Vero C1008
BHK-21 = test: Cytotoxicity against golden hamster BHK21-RepZIKV_IRES-Neo cells assessed as reduction in cell viability measured after 72 hrs by MTT assay; format: toxicity, cell-based, Mesocricetus auratus; conditions: bhk-21, 72 h
[6] = Selectivity index, ratio of CC50 for cytotoxicity against African green monkey Vero E6 cells to EC50 for antiviral activity against Zika virus PE243 infected in African green monkey Vero E6 cells; format: toxicity, cell-based, Vero C1008; conditions: read-out: Ratio CC50/EC50
Zika virus [7] = test: as §1, with “uM” for “uM preincubated with enzyme for 10 mins”
[8] = Cytotoxicity against African green monkey Vero E6 cells assessed as reduction in cell viability measured after 72 hrs by MTT assay; format: toxicity, cell-based, Vero C1008; conditions: chlorocebus sabaeus
Zika virus [9] = test: Antiviral activity against Zika virus PE243 infected in African green monkey Vero E6 cells assessed as inhibition of viral replication incubated for 72 hrs by immunofluorescence analysis; format: functional, organism-based; conditions: PE243, Vero C1008, 72 h
Zika virus [10] = test: Antiviral activity against Zika virus infected in golden hamster BHK21-RepZIKV_IRES-Neo cells assessed as inhibition of viral replication by measuring reduction in renilla luciferase expression at 10 uM measured after 72 hrs by luciferase reporter gene assay relative to control; format: functional, Mesocricetus auratus; conditions: BHK-21
[11] = target: Cruzipain (Trypanosoma cruzi) (UniProt P25779); test: Inhibition of recombinant Trypanosoma cruzi Cruzain using Z-Phe-Arg-AMC as fluorogenic substrate at 25 uM preincubated with enzyme for 10 mins by fluorescence-based analysis relative to control
Sequence of Cruzipain (Trypanosoma cruzi) (P25779 123-467 limits assumed): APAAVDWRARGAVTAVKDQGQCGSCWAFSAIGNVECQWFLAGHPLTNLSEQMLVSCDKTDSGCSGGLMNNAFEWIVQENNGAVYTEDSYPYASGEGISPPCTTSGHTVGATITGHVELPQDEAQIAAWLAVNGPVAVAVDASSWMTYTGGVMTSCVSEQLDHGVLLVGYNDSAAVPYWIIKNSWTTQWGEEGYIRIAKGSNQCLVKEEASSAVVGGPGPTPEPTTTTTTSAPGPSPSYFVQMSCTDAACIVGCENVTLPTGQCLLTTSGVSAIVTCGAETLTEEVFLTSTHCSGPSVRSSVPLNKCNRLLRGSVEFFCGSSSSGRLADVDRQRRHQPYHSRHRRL

Zika virus [12] = test: as §1, with “25” for “100”, “mins in presence of BSA” for “mins”
Zika virus [13] = test: as §1, with “25” for “100”, “with 2 nM” for “with”
Zika virus [14] = test: as §1, with “mins in presence of 0.001% TritonX-100” for “mins”, “analysis” for “analysis relative to control”
Zika virus [15] = test: as §1, with “25” for “100”, “with 0.2 nM” for “with”
[16] = as §1, with “substrate” for “substrate at 100 uM”, “analysis” for “analysis relative to control”
Zika virus [17] = test: as §1, with “50” for “100”, “with 2 nM” for “with”
Zika virus [18] = test: as §1, with “50” for “100”, “mins in presence of BSA” for “mins”
[19] = target: Cruzipain (Trypanosoma cruzi) (UniProt P25779); test: Inhibition of recombinant Trypanosoma cruzi Cruzain using Z-Phe-Arg-AMC as fluorogenic substrate at 50 uM preincubated with enzyme for 10 mins by fluorescence-based analysis relative to control
Zika virus [20] = test: as §1, with “50” for “100”, “with 0.2 nM” for “with”
Zika virus [21] = test: as §1, with “10” for “100”, “mins in presence of BSA” for “mins”
Zika virus [22] = test: as §1, with “12.5” for “100”, “with 2 nM” for “with”
[23] = target: Cruzipain (Trypanosoma cruzi) (UniProt P25779); test: Inhibition of recombinant Trypanosoma cruzi Cruzain using Z-Phe-Arg-AMC as fluorogenic substrate at 12.5 uM preincubated with enzyme for 10 mins by fluorescence-based analysis relative to control
Zika virus [24] = test: as §1, with “12.5” for “100”, “with 0.2 nM” for “with”
Zika virus [25] = test: as §1, with “Non-competitive inhibition” for “Inhibition”, “using 5.5 to 88 uM of” for “using”, “compound concentration close to IC50” for “100 uM”

Row | SMILES | inhibition at 10 µM (Zika virus [1]) [%] | viability at 72 h, 10 µM [2] [%] | viability at 72 h, 2 µM [3] [%] | inhibition (Zika virus [4]) [%] | inhibition at 2 µM (Zika virus [5]) [%] | Activity (BHK-21) | selectivity ratio [6] | inhibition (Zika virus [7]) [%] | CC50 at 72 h [8] [µM] | EC50 (Zika virus [9]) [µM] | inhibition at 10 µM (Zika virus [10]) [%] | also measured
1 | O=C(CNS(=O)(=O)c1ccc(F)cc1)Nc1nc2ccccc2s1 | 65.1 | 26.5 | 95.6 | 43 | 15.9 | – | – | – | – | – | – | –
2 | O=C(Nc1nc2ccccc2s1)c1ccc(NS(=O)(=O)c2ccc(Br)cc2)cc1 | 75.7 | 22.7 | 97 | 4 | 69.1 | Non-Toxic | 9.2 | 7 | 45.8 | 5 | 60.4 | –
3 | COc1ccc(S(=O)(=O)Nc2ccccc2C(=O)Nc2nccs2)cc1 | 100 | 34.8 | 36.2 | 100 | 68.6 | Non-Toxic | 7.7 | 62 | 38.7 | 5 | 75.5 | inhibition [11]: 20%; inhibition (Zika virus [12]): 5%; inhibition (Zika virus [13]): 20%; inhibition (Zika virus [14]): 24%; inhibition (Zika virus [15]): 43%; IC50 [16]: 26 µM
4 | Cc1ccc(S(=O)(=O)NCC(=O)Nc2nc3ccccc3s2)cc1 | 27.9 | 74.4 | 101 | 21 | 6.8 | – | – | – | – | – | – | –
5 | COc1ccc(S(=O)(=O)NCC(=O)Nc2nc3ccccc3s2)cc1 | 0 | 82.7 | 104 | 62 | 0 | – | – | – | – | – | – | –
6 | COc1ccc(S(=O)(=O)Nc2ccccc2C(=O)Nc2nc3ccccc3s2)cc1 | 1 | 104 | 98.5 | 100 | 5.4 | – | – | 92 | – | – | – | inhibition (Zika virus [17]): 25%; inhibition (Zika virus [18]): 20%; inhibition (Zika virus [14]): 53%; inhibition [19]: 96%; IC50 [16]: 24 µM; inhibition (Zika virus [20]): 39%
7 | COc1ccc(S(=O)(=O)Nc2ccccc2C(=O)Nc2nc3ccccc3[nH]2)cc1 | 98.8 | 19.9 | 33.5 | 100 | 97.6 | Non-Toxic | 1.7 | 62 | 56.5 | 33.9 | 46.4 | inhibition (Zika virus [21]): 8%; inhibition (Zika virus [22]): 16%; inhibition (Zika virus [14]): 42%; inhibition [23]: 58%; inhibition (Zika virus [24]): 62%; IC50 [16]: 8 µM
8 | COc1ccc(S(=O)(=O)Nc2ccc(C(=O)Nc3nccs3)cc2)cc1 | 16.1 | 98.9 | 95.7 | 7 | 4.9 | – | – | – | – | – | – | –
9 | COc1ccc(OC)c(S(=O)(=O)NCC(=O)Nc2nc3ccccc3s2)c1 | 7.9 | 102 | 112 | 93 | 8.3 | – | – | 51 | – | – | – | inhibition [11]: 3%; inhibition (Zika virus [12]): 11%; inhibition (Zika virus [13]): 12%; inhibition (Zika virus [14]): 12%; inhibition (Zika virus [15]): 28%; IC50 [16]: 24 µM
10 | Cc1ccc(S(=O)(=O)Nc2ccc(C(=O)Nc3nc4ccccc4s3)cc2)cc1 | 83 | 19.5 | 70.6 | 28 | 5.5 | – | – | 20 | – | – | – | –
11 | CC(=O)Nc1ccc(S(=O)(=O)Nc2ccc(C(=O)Nc3nc4ccccc4s3)cc2)cc1 | 25.8 | 72.3 | 98.1 | 57 | 0.9 | – | – | 44 | – | – | – | –
12 | COc1cc(Cl)ccc1S(=O)(=O)Nc1ccc(C(=O)Nc2nc3ccccc3s2)cc1 | 100 | 17.5 | 44 | 5 | 64.5 | Non-Toxic | 2.2 | 3 | 23.9 | 10.7 | 3.4 | –
13 | O=C(Nc1nc2ccccc2s1)c1ccc(NC(=S)Nc2ccccc2)cc1 | 73.6 | 29 | 96 | 99 | 9.4 | – | – | 46 | – | – | – | inhibition (Zika virus [21]): 12%; inhibition (Zika virus [22]): 9%; inhibition (Zika virus [14]): 46%; inhibition [23]: 72%; inhibition (Zika virus [24]): 15%; inhibition (Zika virus [25]): 25%; IC50 [16]: 8 µM
14 | O=C(Nc1nc2ccccc2s1)c1ccc(NS(=O)(=O)c2ccc(F)cc2)cc1 | 54.7 | 40.4 | 93.6 | 27 | 15.3 | – | – | 22 | – | – | – | –
15 | O=C(Nc1nc2ccccc2s1)c1ccc(NS(=O)(=O)c2ccccc2)cc1 | 82.6 | 17.7 | 85.9 | 28 | 44.7 | – | – | 20 | – | – | – | –
16 | COc1ccc(S(=O)(=O)Nc2ccc(C(=O)Nc3nc4ccccc4[nH]3)cc2)cc1 | 0 | 25.9 | 93.1 | 43 | 0 | – | – | – | – | – | – | –
17 | COc1ccc(S(=O)(=O)Nc2cccc(C(=O)Nc3nc4ccccc4s3)c2)cc1 | 87.5 | 17.7 | 79.3 | 11 | 72.9 | Non-Toxic | 25.1 | 2 | 128 | 5.1 | 40.3 | –
18 | CC(C)(C)OC(=O)NCC(=O)Nc1nc2ccccc2s1 | 56.5 | 60.1 | 104 | – | 18.9 | – | 4.7 | – | 79 | 17 | – | –
19 | O=C(Nc1nc2ccccc2s1)c1ccc(NS(=O)(=O)c2ccc([N+](=O)[O-])cc2)cc1 | 72.1 | 99.7 | 101 | 39 | 0 | Non-Toxic | 4 | 30 | 30.2 | 7.5 | 23.4 | –
